Earlier results as cited in patent US20090197946A1, “COMPOSITION AND METHOD FOR TREATMENT OF INFLAMATION AND INFECTIONS OF THE GENITALIA, CONTRACEPTIVE AND THE PROPHYLAXIS OF SEXUALLY TRANSMITTED DISEASES” (priority 2008, published 2009).

Tests used:
[1] = in vivo
vaginal epithelium = settings: topical, African commercial sex workers

Molecule | known potential side effects [1] | effect of frequent use on the vaginal epithelium (vaginal epithelium) | susceptibility to the HIV infection (vaginal epithelium; frequent use)
CC(C)OC(=O)OCOP(=O)(CO[C@H](C)Cn1cnc2c(N)ncnc21)OCOC(=O)OC(C)C [Viread, Tenofovir] | nausea, diarrhea, vomiting and flatulence | – | –
nonoxynol 9 | – | damaged the vaginal epithelium | increased their susceptibility to the HIV infection
